Test results published in paper PMC8035703, “Effect of Synchronous Versus Sequential Regimens on the Pharmacokinetics and Biodistribution of Regorafenib with Irradiation” (Pharmaceutics, 2021).
Like-named read-outs stand apart in the source and are kept apart here.

Tested on: Hep G2 cells
Assay: Cell viability assay (MTT), Hep G2
Format: cell-based
Conditions: Homo sapiens; for IC50: MTT after 24 h, read-out: IC50 (estimated concentration at which 50% of cells were killed); for viability at 5 µM: HepG2, regorafenib 5 μM; for viability at 10 µM: HepG2, regorafenib 10 μM; for viability at 20 µM: HepG2, regorafenib 20 μM
Experimental: Human hepatoma Huh-7 and Hep G2 cell lines kindly provided by Professor Hu (Taipei Veterans General Hospital, Taiwan) were plated into 96-well plates (1 × 10^3 per well) with serum-containing medium (100 μL) for 1 day. Regorafenib at concentrations of 0, 5, 10 and 20 μmol/L (μM) was added to the plates. Then, the study groups were designed: the concurrent group (1 h after irradiation) or sequential group (24 h after irradiation) with sham RT (RT0 Gy), 2 Gy (RT2 Gy) and 9 Gy (RT9 Gy). Additionally, after 24 h, 20 μL of 5 mg/mL MTT was added to the plates and incubated for 3 h. The supernatant was discarded, the precipitate was dissolved in 200 μL DMSO, and the plates were read with a microplate reader at 570 nm and a reference wavelength of 630 nm.

CNC(=O)c1cc(Oc2ccc(NC(=O)Nc3ccc(Cl)c(C(F)(F)F)c3)c(F)c2)ccn1 [regorafenib, Regorafenib]
IC50 (HepG2, 24 h, Hep G2, RT0 Gy, S (regorafenib added 24 h following RT)): 17.7 µM | IC50 (HepG2, 24 h, Hep G2, RT2 Gy, S (regorafenib added 24 h following RT)): 18.9 µM | IC50 (HepG2, 24 h, Hep G2, RT9 Gy, S (regorafenib added 24 h following RT)): 16.8 µM | IC50 (HepG2, Hep G2, RT0 Gy, C (regorafenib added 1 h following RT)): 9.87 µM | IC50 (HepG2, Hep G2, RT2 Gy, C (regorafenib added 1 h following RT)): 10.5 µM | IC50 (HepG2, Hep G2, RT9 Gy, C (regorafenib added 1 h following RT)): 8.43 µM | viability at 5 µM (Hep G2, RT0 Gy, C): 74.6 ± 2.4% | viability at 5 µM (Hep G2, RT0 Gy, S): 82 ± 1.9% | viability at 5 µM (Hep G2, RT2 Gy, C): 73.1 ± 11.7% | viability at 5 µM (Hep G2, RT2 Gy, S): 72.1 ± 1.7% | viability at 5 µM (Hep G2, RT9 Gy, C): 64.7 ± 11.3% | viability at 5 µM (Hep G2, RT9 Gy, S): 71 ± 5.3% | viability at 10 µM (Hep G2, RT0 Gy, C): 51.3 ± 3.1% | viability at 10 µM (Hep G2, RT0 Gy, S): 67 ± 1.3% | viability at 10 µM (Hep G2, RT2 Gy, C): 50.8 ± 7% | viability at 10 µM (Hep G2, RT2 Gy, S): 64.1 ± 1.3% | viability at 10 µM (Hep G2, RT9 Gy, C): 46.7 ± 8.9% | viability at 10 µM (Hep G2, RT9 Gy, S): 64.2 ± 4.3% | viability at 20 µM (Hep G2, RT0 Gy, C): 24.7 ± 1.2% | viability at 20 µM (Hep G2, RT0 Gy, S): 46 ± 3.4% | viability at 20 µM (Hep G2, RT2 Gy, C): 24.5 ± 2.5% | viability at 20 µM (Hep G2, RT2 Gy, S): 42.4 ± 0.8% | viability at 20 µM (Hep G2, RT9 Gy, C): 20.6 ± 1.5% | viability at 20 µM (Hep G2, RT9 Gy, S): 38.5 ± 1.9%
